Test results from patent publication US11331290B2, “Niclosamide for the treatment of cancer metastasis” (Max-Delbrück-Centrum für Molekulare Medizin in der …, priority 2011, dated 2022).

Tests used:
Format in all cases: cell-based, human
[1] = system: HCT116 cells; experiment: Anchorage-dependent cell proliferation (MTT), discontinued treatment
Method: For cell proliferation determination of HCT116, SW620, LS174T, SW480 and DLD-1 cells 2×10^3 cells were seeded in 96-well-plates (for each day one plate) and were given 24 hours to attach to the bottom of the well. Cells were from then on treated daily with 1 μM niclosamide or the respective amount of DMSO. For determination of viable cells 3-(4,5-dimethyl-2-thiazol)-2,5-diphenyl-2H-tetrazolium bromide (MTT; Sigma) was added to a final concentration of 0.5 mg per mL and incubated for 3 hours at 37° C. and 5% CO2 in a humidified incubator. […] Crystallized MTT was resolved by 10% SDS in 10 mM HCl and the absorption was measured at 560 nm. […] The average MTT metabolisation was determined of two independent experiments each performed in triplicate.
(A) S100A4 expression in vitro after discontinued niclosamide treatment. HCT116 cells were treated daily with 1 μM niclosamide for three consecutive days, medium was removed on day 4, and S100A4 expression was analyzed 24, 48, and 72 hours after niclosamide removal. S100A4 expression was analyzed by qRT-PCR and immunoblot. […] Cell migration rates of HCT116 cells treated as in (A) were determined by Boyden chamber assay. Differences in control vs. treated cells were analyzed by Student's t test. […] Cell proliferation was determined by MTT assay. […] (E) Luminescence signal from liver metastases and spleen tumors. […]

[2] = system: HCT116-vector cells; experiment: Boyden chamber transwell migration assay; conditions: 24 h
Method: (§1) HCT116, SW620, LS174T, SW480 and DLD-1 cells were used in cell migration and invasion analysis performed with Boyden chamber assay. 400 μL containing 2.5×10^5 cells were seeded into each transwell chamber with filter membranes of 12.0 μm pore size (Millipore, Schwalbach, Germany). For invasion filter membranes were coated with 50 μL Matrigel (diluted 1:3 in RPMI-1640; BD Biosciences) 10 minutes before cells were seeded. Fresh medium (600 μL) were added to the bottom chamber and cells were allowed to attach to the insets for 15 hours. Both chambers were treated with 1 μM niclosamide or the respective amount of DMSO and incubated at 37° C. and 5% CO2 in a humidified incubator for 24 hours. Afterwards insets were removed and cells that had migrated through the membrane to the lower chamber were trypsinized and counted in a Neubauer chamber (LO-Laboroptik, Bad Homburg, Germany). Each well was counted ten times. Each migration or invasion experiment was performed in duplicate. The average number of migrated or invaded cells was determined for at least three independent experiments.
(§2) (A) Cell migration of HCT116-vector and HCT116-S100A4 cells exposed to niclosamide treatment. Cells were treated with 1 μM niclosamide for 24 hours and migration rates were measured with Boyden chamber assay. (B) Cell invasion of HCT116-vector and HCT116-S100A4 cells exposed to niclosamide treatment. Cells were treated with 1 μM niclosamide for 24 hours and cell invasion was determined by Boyden chamber assay. (C) Directed migration of HCT116-vector and HCT116-S100A4 cells exposed to niclosamide treatment analyzed by wound healing assay. Wounds of 300 μM width were set in a 60% confluent monolayer of HCT116-vector or HCT116-S100A4 cells on day 1. Cells were treated daily with 1 μM niclosamide for 4 days. Microphotographs of day 4 are presented here with black lines indicating margins of entered wound of day 1; scale bar represents 200 μM. Data represents three independent experiments. (D) Adhesive cell proliferation of HCT116-vector and HCT116-S100A4 cells exposed to niclosamide treatment. Cells were treated daily with 1 μM niclosamide and cell viability was determined with MTT assay. (E) Anchorage-independent cell growth of HCT116-vector and HCT116-S100A4 cells exposed to niclosamide treatment. Cells were plated as single cells into 0.33% (w/v) agarose and treatment (solvent or 1 μM niclosamide) containing medium. After 7 days colonies were visualized by light microscopy at 10× (overview) and 40× (single colony) magnification. (F) Quantification of colonies formed. Number of colonies (of more than 4 cells) was counted and normalized to solvent-treated HCT116-vector cells. Differences of niclosamide vs. solvent-treated cells were analyzed by Student's t test. […]

[3] = system: HCT116-S100A4 cells; experiment: Boyden chamber transwell migration assay; conditions: 1 μM, 24 h, statistically not significant
Method: as §1, §2

O=C(Nc1ccc([N+](=O)[O-])cc1Cl)c1cc(Cl)ccc1O [niclosamide, 2′,5-dichloro-4′-nitrosalicylanilide]
anchorage-dependent proliferation ([1]; 1 μM daily, vs solvent-treated control): inhibited
anchorage-dependent proliferation after removal of niclosamide ([1]; niclosamide removed on day 5, following five days): did not reverse the inhibition of cell proliferation
migration, mean difference control vs niclosamide ([2]; 1 μM): 57.0%
activity at 1 µM ([2]; Homo sapiens, read-out: number of migrated cells, mean % of control): 43%
migration rate, mean % ([3]; solvent control 145.0%): 117.0%
migration, mean difference control vs niclosamide [3]: 28%
